How the values were obtained:
[1] = target: TylF (Streptomyces fradiae, UniProt Q9S4D5, Y139F); test: biochemical
[2] = target: TylF (Streptomyces fradiae, UniProt Q9S4D5); test: biochemical
Chain of TylF (Streptomyces fradiae, UniProt Q9S4D5) (Q9S4D5 whole entry): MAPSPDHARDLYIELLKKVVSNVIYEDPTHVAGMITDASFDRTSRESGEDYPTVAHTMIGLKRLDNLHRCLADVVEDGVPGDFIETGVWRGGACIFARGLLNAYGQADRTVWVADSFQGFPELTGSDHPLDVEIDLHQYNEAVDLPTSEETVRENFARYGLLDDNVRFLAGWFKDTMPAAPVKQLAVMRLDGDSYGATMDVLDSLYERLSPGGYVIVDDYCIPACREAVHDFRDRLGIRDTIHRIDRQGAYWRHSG

Chain of TylF (Streptomyces fradiae, UniProt Q9S4D5, Y139F) (Q9S4D5 whole entry Y139F): as the sequence (Q9S4D5 whole entry) above, with Y139F counted along it

## C[S+](CC[C@H](N)C(=O)O)C[C@H]1O[C@@H](n2cnc3c(N)ncnc32)[C@H](O)[C@@H]1O (some centres unmarked) [SAM]
[1]
  Kd: 265 ± 24.3 µM
[2]
  Kd: 162 ± 91.6 µM
